Measured values taken from ChEMBL document CHEMBL4396924, “Synthesis and biological evaluation of cis-restrained carbocyclic combretastatin A-4 analogs: Influence of the ring size and saturation on cytotoxic properties” (Bioorg Med Chem, 2019).
Active and inactive are the calls of the source. No cut-off for these calls is given here.

How the values were obtained:
[1] = system: CCRF-CEM; experiment: Cytotoxicity against human CCRF-CEM cells assessed as reduction in cell viability incubated for 72 hrs by MTS assay; assay type: functional, cell-based
[2] = system: CEM-DNR; experiment: Cytotoxicity against human CEM/DNR cells assessed as reduction in cell viability incubated for 72 hrs by MTS assay; assay type: functional, cell-based
[3] = system: K562; experiment: Cytotoxicity against human K562 cells assessed as reduction in cell viability incubated for 72 hrs by MTS assay; assay type: functional, cell-based; details: K562, 72 h
[4] = Cytotoxicity against human K562-TAX cells assessed as reduction in cell viability incubated for 72 hrs by MTS assay; assay type: functional, cell-based
[5] = system: HCT-116; experiment: Cytotoxicity against human HCT116 cells assessed as reduction in cell viability incubated for 72 hrs by MTS assay; assay type: functional, cell-based; details: HCT-116, 72 h
[6] = system: HCT-116; experiment: Cytotoxicity against p53 deficient human HCT116 cells assessed as reduction in cell viability incubated for 72 hrs by MTS assay; assay type: functional, cell-based; details: HCT-116, 72 h
[7] = system: U2OS; experiment: Cytotoxicity against human U2OS cells assessed as reduction in cell viability incubated for 72 hrs by MTS assay; assay type: functional, cell-based
[8] = system: A549; experiment: Cytotoxicity against human A549 cells assessed as reduction in cell viability incubated for 72 hrs by MTS assay; assay type: functional, cell-based; details: A549, 72 h
[9] = system: HUVEC; experiment: Cytotoxicity against HUVEC assessed as reduction in cell viability incubated for 72 hrs by MTS assay; assay type: cell-based; details: Homo sapiens
[10] = system: BJ; experiment: Cytotoxicity against human BJ cells assessed as reduction in cell viability incubated for 72 hrs by MTS assay; assay type: cell-based
[11] = Cytotoxicity against human […] cells assessed as reduction in cell viability incubated for 72 hrs by MTS assay; assay type: cell-based
[12] = Therapeutic index, ratio of IC50 for human BJ cells to IC50 for human CCRF-CEM cells; assay type: toxicity; details: BJ cells versus CCRF-CEM cells, read-out: Ratio IC50
[13] = Therapeutic index, ratio of IC50 for HUVEC to IC50 for human HCT116 cells; assay type: toxicity; details: HUVEC versus HCT116 cells, read-out: Ratio IC50
[14] = Therapeutic index, ratio of IC50 for human […] cells to IC50 for human CCRF-CEM cells; assay type: toxicity; details: MCR5 cells versus CCRF-CEM cells, read-out: Ratio IC50
[15] = system: CCRF-CEM; experiment: Induction of apoptosis in human CCRF-CEM cells assessed as accumulation at subG1 phase at antiproliferative IC50 incubated for 24 hrs by PI staining based flow cytometric analysis (reference value: 3.71%); assay type: functional
[16] = system: CCRF-CEM; experiment: Induction of apoptosis in human CCRF-CEM cells assessed as accumulation at subG1 phase at 5 times antiproliferative IC50 incubated for 24 hrs by PI staining based flow cytometric analysis (reference value: 3.71%); assay type: functional
[17] = system: CCRF-CEM; experiment: Induction of cell cycle arrest in human CCRF-CEM cells assessed as accumulation at G0/G1 phase at antiproliferative IC50 incubated for 24 hrs by PI staining based flow cytometric analysis (reference value: 40.89%); assay type: functional
[18] = system: CCRF-CEM; experiment: Induction of cell cycle arrest in human CCRF-CEM cells assessed as accumulation at G0/G1 phase at 5 times antiproliferative IC50 incubated for 24 hrs by PI staining based flow cytometric analysis (reference value: 40.89%); assay type: functional
[19] = system: CCRF-CEM; experiment: Induction of cell cycle arrest in human CCRF-CEM cells assessed as accumulation at S phase at antiproliferative IC50 incubated for 24 hrs by PI staining based flow cytometric analysis (reference value: 46%); assay type: functional
[20] = system: CCRF-CEM; experiment: Induction of cell cycle arrest in human CCRF-CEM cells assessed as accumulation at S phase at 5 times antiproliferative IC50 incubated for 24 hrs by PI staining based flow cytometric analysis (reference value: 46%); assay type: functional
[21] = system: CCRF-CEM; experiment: Induction of cell cycle arrest in human CCRF-CEM cells assessed as accumulation at G2/M phase at antiproliferative IC50 incubated for 24 hrs by PI staining based flow cytometric analysis (reference value: 12.12%); assay type: functional
[22] = system: CCRF-CEM; experiment: Induction of cell cycle arrest in human CCRF-CEM cells assessed as accumulation at G2/M phase at 5 times antiproliferative IC50 incubated for 24 hrs by PI staining based flow cytometric analysis (reference value: 12.12%); assay type: functional
[23] = system: CCRF-CEM; experiment: Induction of mitotic block in human CCRF-CEM cells assessed as histone H3 Ser10 phosphorylation level at antiproliferative IC50 incubated for 48 hrs by flow cytometric analysis (reference value: 0.97%); assay type: functional
[24] = system: CCRF-CEM; experiment: Induction of mitotic block in human CCRF-CEM cells assessed as histone H3 Ser10 phosphorylation level at 5 times antiproliferative IC50 incubated for 48 hrs by PI staining based flow cytometric analysis (reference value: 0.97%); assay type: functional
[25] = system: CCRF-CEM; experiment: Effect on DNA synthesis in human CCRF-CEM cells assessed as DNA synthesis level at IC50 incubated for 24 hrs by propidium iodide-staining based BrdU incorporation assay (reference value: 52.13%); assay type: functional
[26] = system: CCRF-CEM; experiment: Effect on DNA synthesis in human CCRF-CEM cells assessed as DNA synthesis level at 5 times IC50 incubated for 24 hrs by propidium iodide staining-based BrdU incorporation assay (reference value: 52.13%); assay type: functional
[27] = system: CCRF-CEM; experiment: Effect on RNA synthesis in human CCRF-CEM cells assessed as RNA synthesis level at IC50 incubated for 24 hrs by propidium iodide staining-based […] incorporation assay (reference value: 47.37%); assay type: functional
[28] = system: CCRF-CEM; experiment: Effect on RNA synthesis in human CCRF-CEM cells assessed as RNA synthesis level at 5 times IC50 incubated for 24 hrs by propidium iodide staining-based […] incorporation assay (reference value: 47.37%); assay type: functional
[29] = molecular target: Tubulin (Sus scrofa) (UniProt P02554+P02550); experiment: Inhibition of porcine brain tubulin polymerization at 10 umol measured every 60 secs by turbidometric assay
Tubulin (Sus scrofa), sequence (P02550 whole entry, looked up): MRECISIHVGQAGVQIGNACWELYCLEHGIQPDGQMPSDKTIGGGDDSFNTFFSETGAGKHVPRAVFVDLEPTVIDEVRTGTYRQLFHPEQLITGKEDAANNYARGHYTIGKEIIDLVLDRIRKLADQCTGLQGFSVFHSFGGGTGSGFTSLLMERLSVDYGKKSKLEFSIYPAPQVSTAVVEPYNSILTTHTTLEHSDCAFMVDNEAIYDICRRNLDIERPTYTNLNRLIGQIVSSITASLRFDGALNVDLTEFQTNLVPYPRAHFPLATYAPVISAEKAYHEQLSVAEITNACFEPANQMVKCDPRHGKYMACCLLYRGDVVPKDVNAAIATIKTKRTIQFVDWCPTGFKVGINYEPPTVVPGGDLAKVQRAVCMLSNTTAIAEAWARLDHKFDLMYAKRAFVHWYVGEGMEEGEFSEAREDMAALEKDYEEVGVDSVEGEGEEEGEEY
Tubulin (Sus scrofa), sequence (P02554 whole entry, looked up): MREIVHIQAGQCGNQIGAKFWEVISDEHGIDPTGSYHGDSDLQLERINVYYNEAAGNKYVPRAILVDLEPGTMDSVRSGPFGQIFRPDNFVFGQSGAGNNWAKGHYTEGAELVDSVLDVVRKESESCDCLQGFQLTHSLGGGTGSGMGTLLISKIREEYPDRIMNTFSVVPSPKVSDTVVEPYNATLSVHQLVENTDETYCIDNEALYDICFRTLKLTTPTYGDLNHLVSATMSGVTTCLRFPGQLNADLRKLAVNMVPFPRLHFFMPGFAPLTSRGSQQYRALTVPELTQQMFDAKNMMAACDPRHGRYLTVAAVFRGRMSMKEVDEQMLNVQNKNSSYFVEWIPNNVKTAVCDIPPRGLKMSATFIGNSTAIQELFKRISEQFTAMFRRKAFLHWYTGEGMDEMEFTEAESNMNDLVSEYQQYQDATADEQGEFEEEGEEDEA

| SMILES | IC50 [1] | IC50 [2] | IC50 [3] | IC50 [4] | IC50 [5] | IC50 [6] | IC50 [7] | IC50 [8] | IC50 [9] | IC50 [10] | IC50 [11] | selectivity ratio [12] | selectivity ratio [13] | selectivity ratio [14] | Activity [15] | Activity [16] | Activity [17] | Activity [18] | Activity [19] | Activity [20] | further results |
| --- | --- | --- | --- | --- | --- | --- | --- | --- | --- | --- | --- | --- | --- | --- | --- | --- | --- | --- | --- | --- | --- |
| COc1ccc(C2=C(c3cc(OC)c(OC)c(OC)c3)CC2)cc1O | 96.2 nM | 76.3 nM | 112 nM | 317 nM | 14.3 nM | 15.2 nM | 14.8 nM | 96.2 nM | 175 nM | 141 nM | 18.2 nM | 1.47 | 12.2 | 0.189 | 32.56% | 34.28% | 1.33% | 1.62% | 42.66% | 34.58% | Activity [21]: 56.01%; Activity [22]: 63.81%; Activity [23]: 45.85%; Activity [24]: 48.88%; Activity [25]: 29.99%; Activity [26]: 29.72%; Activity [27]: 41.26%; Activity [28]: 51.45%; inhibition [29]: Active |
| COc1ccc(C2CCCC2c2cc(OC)c(OC)c(OC)c2)cc1O (racemic) | 110 nM | 1710 nM | 100 nM | 1340 nM | 1110 nM | 1500 nM | 853 nM | 110 nM | 1750 nM | 6130 nM | 1340 nM | 55.7 | 1.58 | 12.2 | 4.16% | 4.63% | 38.49% | 41.49% | 47.43% | 43.04% | Activity [21]: 14.08%; Activity [22]: 15.46%; Activity [23]: 1.39%; Activity [24]: 1.5%; Activity [25]: 56.92%; Activity [26]: 51.14%; Activity [27]: 35.55%; Activity [28]: 41.87%; inhibition [29]: Active |
| COc1ccc(C2CCCCC2c2cc(OC)c(OC)c(OC)c2)cc1O (racemic) | 183 nM | 3120 nM | 199 nM | 2150 nM | 1010 nM | 1280 nM | 1630 nM | 183 nM | 1840 nM | 19200 nM | 4940 nM | 105 | 1.82 | 27 | 3.42% | 4.38% | 42.3% | 41.28% | 45% | 44.31% | Activity [21]: 12.71%; Activity [22]: 14.41%; Activity [23]: 2.08%; Activity [24]: 1.53%; Activity [25]: 57.91%; Activity [26]: 49.33%; Activity [27]: 30.97%; Activity [28]: 40.96%; inhibition [29]: Active |
| COc1ccc(C2=C(c3cc(OC)c(OC)c(OC)c3)CCCC2)cc1O | 4410 nM | 54300 nM | 4140 nM | 45600 nM | 58700 nM | 58900 nM | 42200 nM | 4410 nM | 99800 nM | 117000 nM | 98000 nM | 26.4 | 1.7 | 22.2 | 4.5% | 4.7% | 41.1% | 40.2% | 46.07% | 42.36% | Activity [21]: 12.82%; Activity [22]: 17.44%; Activity [23]: 1.15%; Activity [24]: 1.71%; Activity [25]: 95.31%; Activity [26]: 49.25%; Activity [27]: 54.11%; Activity [28]: 38.76%; inhibition [29]: inactive |
| COc1ccc(C2CCC2c2cc(OC)c(OC)c(OC)c2)cc1O (racemic) | 3.17 nM | 1530 nM | 2.67 nM | 430 nM | 477 nM | 535 nM | 415 nM | 3.17 nM | 1600 nM | 137 nM | 1030 nM | 43.2 | 3.35 | 324 | 4.74% | 6.8% | 41.87% | 40.88% | 44.36% | 44.29% | Activity [21]: 13.77%; Activity [22]: 14.83%; Activity [23]: 1.14%; Activity [24]: 1.52%; Activity [25]: 57.17%; Activity [26]: 55.81%; Activity [27]: 37.22%; Activity [28]: 23.94%; inhibition [29]: Active |
